In patent publication US7659404B2, “Broad spectrum 2-(substituted-amino)-benzothiazole sulfonamide HIV protease inhibitors” (Tibotec Pharmaceuticals Ltd., priority 2001, dated 2010):
Like-named read-outs stand apart in the source and are kept apart here.

Assays:
[1] = system: wild type virus (IIIB); test: HIV-AVE-MT4-MTT cellular assay, wild type virus (IIIB); type: cell-based; conditions: for EC50: Human immunodeficiency virus 1, IIIB; for HIV-AVE-MT4-MTT-IIIB-2-002 pEC50: wild type virus (IIIB)
Procedure: (§1) HIV- or mock-infected MT4 cells were incubated for five days in the presence of various concentrations of the inhibitor. At the end of the incubation period, all HIV-infected cells have been killed by the replicating virus in the control cultures in the absence of any inhibitor. Cell viability is measured by measuring the concentration of MTT, a yellow, water soluble tetrazolium dye that is converted to a purple, water insoluble formazan in the mitochondria of living cells only. Upon solubilization of the resulting formazan crystals with isopropanol, the absorbance of the solution is monitored at 540 nm. The values correlate directly to the number of living cells remaining in the culture at the completion of the five day incubation. The inhibitory activity of the compound was monitored on the virus-infected cells and was expressed as EC50 and EC90. These values represent the amount of the compound required to protect 50% and 90%, respectively, of the cells from the cytopathogenic effect of the virus. The toxicity of the compound was measured on the mock-infected cells and was expressed as CC50, which represents the concentration of compound required to inhibit the growth of the cells by 50%. The selectivity index (SI) (ratio CC50/EC50) is an indication of the selectivity of the anti-HIV activity of the inhibitor.

[2] = system: virus strain F (R13025); test: microbe, parasite or virus in culture; type: cell-based, HIV; conditions: for EC50: Human immunodeficiency virus 1, MT4, read-out: HIV-AVE-MT4-MTT-R13025-2-002 pEC50, virus strain F (R13025), MT4 cells, MTT (converted); for HIV-AVE-MT4-MTT-R13025-2-002 pEC50: virus strain F (R13025), MT4 cells
Procedure: as §1, with “At the end of the incubation period, all HIV-infected cells have been killed by the replicating virus in the control cultures in the absence of any inhibitor.” left out
(§2) Because of the increasing emergence of drug resistant HIV strains, the present compounds were tested for their potency against clinically isolated HIV strains harboring several mutations.
(§3) As a measure of the broad spectrum activity of the present compounds, the fold resistance (FR) defined as FR=EC50(mutant strain)/EC50(HIV-1 strain LAI).

[3] = system: virus strain S (R13080); test: microbe, parasite or virus in culture; type: cell-based, HIV; conditions: for EC50: Human immunodeficiency virus 1, MT4, read-out: HIV-AVE-MT4-MTT-R13080-2-002 pEC50, virus strain S (R13080), MT4 cells, MTT (converted); for HIV-AVE-MT4-MTT-R13080-2-002 pEC50: virus strain S (R13080), MT4 cells
Procedure: as §1, with “At the end of the incubation period, all HIV-infected cells have been killed by the replicating virus in the control cultures in the absence of any inhibitor.” left out
as §2, §3

[4] = MT4, wild type virus (IIIB), MT4 cells, MTT, read-out: HIV-AVE-MT4-MTT-IIIB-2-002 pEC50 (converted)

SMILES | EC50 [1, 4] [nM] | EC50 [2] [nM] | EC50 [3] [nM] | EC50 ([1]; MT4, read-out: HIV-AVE-MT4-MTT-IIIB-2-002 pEC50 (converted)) [nM] | HIV-AVE-MT4-MTT-IIIB-2-002 pEC50 ([1]; MT4 cells, MTT) | HIV-AVE-MT4-MTT-R13025-2-002 pEC50 [2] | HIV-AVE-MT4-MTT-R13080-2-002 pEC50 [3]
CC(C)CN(C[C@@H](O)[C@H](Cc1ccccc1)NC(=O)OCc1cncs1)S(=O)(=O)c1ccc2nc(NC(=O)CN3CCOCC3)sc2c1 [Compound 158] | 3.31 | 7.94 | 30.2 |  |  |  | 
CC(C)CN(C[C@@H](O)[C@H](Cc1ccccc1)NC(=O)O[C@H]1CO[C@H]2OCC[C@H]21)S(=O)(=O)c1ccc2nc(NCCN3CCCC3)sc2c1 [Compound 184] |  | 4.47 | 26.9 | 17.4 |  |  | 
Cc1cccc(C)c1OCC(=O)N[C@@H](Cc1ccccc1)[C@H](O)CN(CC(C)C)S(=O)(=O)c1ccc2nc(NC(=O)C3CCCN(C)C3)sc2c1 (stereo partly drawn) [Compound 128] | 5.89 | 19.1 | 56.2 |  |  |  | 
CC(=O)Nc1nc2ccc(S(=O)(=O)N(CC(C)C)C[C@@H](O)[C@H](Cc3ccccc3)NC(=O)OCc3cncs3)cc2s1 [Compound 169] | 8.51 | 6.76 | 35.5 |  |  |  | 
CC(C)CN(C[C@@H](O)[C@H](Cc1ccccc1)NC(=O)O[C@H]1CO[C@H]2OCC[C@H]21)S(=O)(=O)c1ccc2nc(N(CCN3CCCC3)C(=O)OC3CO[C@@H]4OCO[C@H]34)sc2c1 (stereo partly drawn) [Compound 178] | 17.4 | 10.7 | 33.9 |  |  |  | 
CC(=O)NCCNc1nc2ccc(S(=O)(=O)N(CC(C)C)C[C@@H](O)[C@H](Cc3ccccc3)NC(=O)OC(C)(C)C)cc2s1 [Compound 121] | 20.9 | 2820 | 10000 |  |  |  | 
CC(C)CN(C[C@@H](O)[C@H](Cc1ccccc1)NC(=O)OCc1cncs1)S(=O)(=O)c1ccc2nc(C(C)C(=O)CCCC(=O)O)sc2c1 (stereo partly drawn) [Compound 160] | 51.3 | 479 | 2450 |  |  |  | 
CC(C)CN(C[C@@H](O)[C@H](Cc1ccccc1)NC(=O)OC1CCSC1)S(=O)(=O)c1ccc2nc(NCCN(C)C)sc2c1 (stereo partly drawn) [Compound 146] | 9.55 | 302 | 1000 |  |  |  | 
COc1cc(C(=O)Nc2nc3ccc(S(=O)(=O)N(CC(C)C)C[C@@H](O)[C@H](Cc4ccccc4)NC(=O)COc4c(C)cccc4C)cc3s2)cc(OC)c1O [Compound 116] | 31.6 | 32.4 | 43.7 |  |  |  | 
Cc1cccc(C)c1OCC(=O)N[C@@H](Cc1ccccc1)[C@H](O)CN(CC(C)C)S(=O)(=O)c1ccc2nc(NC(=O)C3CC(=O)N(Cc4ccco4)C3)sc2c1 (stereo partly drawn) [Compound 114] | 20.4 | 33.9 | 141 |  |  |  | 
Cc1cccc(C)c1OCC(=O)N[C@@H](Cc1ccccc1)[C@H](O)CN(CC(C)C)S(=O)(=O)c1ccc2nc(N(C)CCN3CCCC3)sc2c1 [Compound 115] | 759 | 6170 | 10000 |  |  |  | 
CC(C)CN(C[C@@H](O)[C@H](Cc1ccccc1)NC(=O)O[C@H]1CO[C@H]2OCC[C@H]21)S(=O)(=O)c1ccc2nc(N(C)CCCN(C)C)sc2c1 [Compound 103] | 20 | 174 | 525 |  |  |  | 
CNCCNc1nc2ccc(S(=O)(=O)N(CC(C)C)C[C@@H](O)[C@H](Cc3ccccc3)NC(=O)OCc3cncs3)cc2s1 [Compound 150] | 42.7 | 162 | 661 |  |  |  | 
CCN1CCCC1CNc1nc2ccc(S(=O)(=O)N(CC(C)C)C[C@@H](O)[C@H](Cc3ccccc3)NC(=O)O[C@H]3CO[C@H]4OCC[C@H]43)cc2s1 (stereo partly drawn) [Compound 186] | 6.17 | 6.61 | 28.8 |  |  |  | 
CC(C)CN(C[C@@H](O)[C@H](Cc1ccccc1)NC(=O)OCc1cncs1)S(=O)(=O)c1ccc2nc(N(C)C(=O)CN3CCN(C)CC3)sc2c1 [Compound 173] |  |  |  |  | 8.25 | 7.52 | 6.81
CC(C)CN(C[C@@H](O)[C@H](Cc1ccccc1)NC(=O)C(NC(=O)CNCc1cccc(F)c1)C(C)(C)C)S(=O)(=O)c1ccc2nc(NCCN3CCCC3)sc2c1 (stereo partly drawn) [Compound 189] | 44.7 | 102 | 138 |  |  |  | 
Cc1cccc(C)c1OCC(=O)N[C@@H](Cc1ccccc1)[C@H](O)CN(CC(C)C)S(=O)(=O)c1ccc2nc(NC(=O)c3cccnc3)sc2c1 [Compound 111] | 24.5 | 234 | 661 |  |  |  | 
CC(C)CN(C[C@@H](O)[C@H](Cc1ccccc1)NC(=O)OCc1cncs1)S(=O)(=O)c1ccc2nc(N(C)C(=O)c3ccc[nH]3)sc2c1 [Compound 180] | 155 | 891 | 10000 |  |  |  | 
CC(C)CN(C[C@@H](O)[C@H](Cc1ccccc1)NC(=O)OCc1cncs1)S(=O)(=O)c1ccc2nc(NC(=O)c3ccc[nH]3)sc2c1 [Compound 179] | 8.91 | 57.5 | 47.9 |  |  |  | 
Cc1cccc(C)c1OCC(=O)N[C@@H](Cc1ccccc1)[C@H](O)CN(CC(C)C)S(=O)(=O)c1ccc2nc(NC(=O)C3CCN(C)CC3)sc2c1 [Compound 127] | 16.6 | 31.6 | 135 |  |  |  | 
CC(C)CN(C[C@@H](O)[C@H](Cc1ccccc1)NC(=O)OCc1cncs1)S(=O)(=O)c1ccc2nc(N(C)C(=O)c3cccnc3)sc2c1 [Compound 153] | 7.41 | 45.7 | 339 |  |  |  | 
CC(C)CN(C[C@@H](O)[C@H](Cc1ccccc1)NC(=O)OCc1cncs1)S(=O)(=O)c1ccc2nc(N(C)C(=O)c3ccccn3)sc2c1 [Compound 154] | 5.5 | 38 | 372 |  |  |  | 
CC(C)CN(C[C@@H](O)[C@H](Cc1ccccc1)NC(=O)OCc1cncs1)S(=O)(=O)c1ccc2nc(N(C)C(=O)c3cc(ON)cc(ON)c3)sc2c1 [Compound 152] | 33.1 | 562 | 1740 |  |  |  | 
Cc1cccc(C)c1OCC(=O)N[C@@H](Cc1ccccc1)[C@H](O)CN(CC(C)C)S(=O)(=O)c1ccc2nc(NCc3ccncc3)sc2c1 [Compound 131] | 46.8 | 832 | 1050 |  |  |  | 
Cc1cccc(C)c1OCC(=O)N[C@@H](Cc1ccccc1)[C@H](O)CN(CC(C)C)S(=O)(=O)c1ccc2nc(NC(=O)c3cc(O)cc(O)c3)sc2c1 [Compound 113] | 5.13 | 24.5 | 43.7 |  |  |  | 
CC(C)CN(C[C@@H](O)[C@H](Cc1ccccc1)NC(=O)OCc1cncs1)S(=O)(=O)c1ccc2nc(NC(=O)c3ccoc3)sc2c1 [Compound 164] | 7.08 | 33.9 | 158 |  |  |  | 
Cc1cccc(C)c1OCC(=O)N[C@@H](Cc1ccccc1)[C@H](O)CN(CC(C)C)S(=O)(=O)c1ccc2nc(N3CCCC3C(=O)O)sc2c1 (stereo partly drawn) [Compound 139] | 2090 | 3090 | 10000 |  |  |  | 
CC(C)CN(C[C@@H](O)[C@H](Cc1ccccc1)NC(=O)O[C@H]1CO[C@H]2OCC[C@H]21)S(=O)(=O)c1ccc2nc(N3CCNC3=O)sc2c1 [Compound 106] | 11 | 55 | 219 |  |  |  | 
COC(=O)CCNc1nc2ccc(S(=O)(=O)N(CC(C)C)C[C@@H](O)[C@H](Cc3ccccc3)NC(=O)OC(C)(C)C)cc2s1 [Compound 143] | 74.1 | 10000 | 10000 |  |  |  | 
CC(C)CN(C[C@@H](O)[C@H](Cc1ccccc1)NC(=O)OCc1cncs1)S(=O)(=O)c1ccc2nc(N(C)C(=O)CN3CCOCC3)sc2c1 [Compound 174] |  |  |  |  | 8.04 | 6.88 | 6.18
